“Also recorded” adds a separate entry of the source.
Tests used:
[1] = tested on: primary neuronal cultures; experiment: IL-6 exposure of primary neuronal cultures: oxidized DHE, Nox2, parvalbumin and GAD67; assay type: cell-based, mouse
Protocol: IL-6 increases superoxide in a Nox dependent manner, and reduces GAD67 and parvalbumin in primary cultures, as summarized by the data graphically presented in FIG. 18. […] As before, dihydroethidium (DHE) was applied for the last hour (DHE detects superoxide and hydrogen peroxide). After fixation, ICC for PV and GAD67 was carried out as described in methods and quantitative confocal microscopy was utilized for fluorescence analysis.
DHE (1 μg/ml) was added during the last hour of treatment. Images show the increase in Nox2 immunoreactivity and oxidized DHE upon treatment with IL-6. Bar-graphs show the results of quantification of oxidized DHE and Nox2 fluorescence expressed as % of control. […] Data are means±SEM. Baseline intensities: DHE=21±4.7; Nox2=18.7±2.6.
Fluorescence confocal images of representative fields depicting the expression of parvalbumin (PV) and GAD67 in PV-interneurons. Bar-graph represents the quantification of fluorescence expressed as % of control. […] Data are means±SEM. Baseline intensities: PV=135±32; GAD67=114±26.
IL-6 potentiates ketamine effects on PV-interneurons. […] After fixation, ICC for GAD67 and parvalbumin was carried out as described by Kinney (2006) J. Neurosci. […] N=3 cultures per condition.

NADPH oxidase = molecular target: T1, NADPH oxidase (Mus musculus, UniProt Q61093); experiment: EPR superoxide production by forebrain synaptosomes exposed to IL-6; assay type: biochemical; details: IL-6 100 ng/ml, synaptosomes
T1 sequence (Q61093 1-570): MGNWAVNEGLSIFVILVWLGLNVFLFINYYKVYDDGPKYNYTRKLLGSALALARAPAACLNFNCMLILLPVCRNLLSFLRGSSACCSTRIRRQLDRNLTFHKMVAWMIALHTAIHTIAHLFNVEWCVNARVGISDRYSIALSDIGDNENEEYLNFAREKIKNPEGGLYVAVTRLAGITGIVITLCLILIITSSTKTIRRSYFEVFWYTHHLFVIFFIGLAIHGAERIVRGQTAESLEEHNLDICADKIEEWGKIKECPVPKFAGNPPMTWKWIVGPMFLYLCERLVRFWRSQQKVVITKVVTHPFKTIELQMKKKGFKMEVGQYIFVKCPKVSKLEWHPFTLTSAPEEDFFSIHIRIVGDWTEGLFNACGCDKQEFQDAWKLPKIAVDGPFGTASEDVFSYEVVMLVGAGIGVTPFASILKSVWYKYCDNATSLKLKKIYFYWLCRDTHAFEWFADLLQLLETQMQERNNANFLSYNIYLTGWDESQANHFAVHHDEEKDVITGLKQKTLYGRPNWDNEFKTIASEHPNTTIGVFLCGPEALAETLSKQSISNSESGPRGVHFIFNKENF
T1 sequence (Q61462 1-192 partner): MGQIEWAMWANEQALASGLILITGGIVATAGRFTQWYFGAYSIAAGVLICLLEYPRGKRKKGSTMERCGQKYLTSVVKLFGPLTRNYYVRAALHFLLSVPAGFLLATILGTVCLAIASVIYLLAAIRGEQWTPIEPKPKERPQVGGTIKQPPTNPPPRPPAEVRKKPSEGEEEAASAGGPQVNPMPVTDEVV

[2] = IL-6 i.p. in young and old mice: plasma IL-6 (ELISA) and tolerability; assay type: in vivo
Protocol: Plasma IL-6 is increased with aging or after intraperitoneal (i.p.) administration of IL-6, as illustrated by data shown in FIG. 44. […] IL-6 was assayed by ELISA (R&D Systems, Minneapolis, Minn.). Mice were then given a direct intraperitoneal (IP) injection of 3 μg/kg IL-6 on two consecutive days, and plasma IL-6 was assayed 16 hours (hr) after the last injection. […] Since the half-life of IL-6 in plasma is 4 hr, the sustained increase in IL-6 after injection may indicate induction of new IL-6 synthesis in young mice, which may be suppressed by the high endogenous IL-6 levels in old mice.

Jak2 = Jak2 phosphorylation in cortical neurons exposed to IL-6; assay type: cell-based, mouse; details: IL-6 20 ng/ml, 1 h, absence of astrocytes
Protocol: Exposure of cortical neurons to IL-6 (20 ng/ml, 1 h in the absence of astrocytes) increased the phosphorylation of the protein kinase Jak2, which transduces the signal from the activated IL-6 receptor, as illustrated by the data shown in FIG. 34A. […] Prolonged exposure (24 h) to the interleukin increased production of superoxide (as determined by DHE oxidation) and increased the expression of Nox2 in neurons, as illustrated by the data shown in FIG. 34B. The role of Nox2 activation in the increase in DHE oxidation was confirmed by co-exposure to the Nox inhibitor apocynin (0.5 mM) (FIG. 34B bottom panels).
For FIGS. 34A-34B: primary neuronal cultures were developed on coverslips as described Kinney et al., 2006, supra. After 21 days in culture, coverslips containing neurons were separated from the astrocytic monolayers, washed in HCSS and subjected to IL-6 treatment for 1 hour (FIG. 34A) or treated with IL-6 for 24 h on top of the astrocyte monolayer (FIG. 34B). After treatment, the coverslips were fixed in paraformaldehyde and processed for double fluorescence immuno-cytochemistry using the following antibodies: anti-GAD67 (1:2000, Chemicon. Red) anti-phospho-Jak2 (1:100, Cell Signaling. Green), and anti-Nox2 (1:300, monoclonal 54.1 Green). […] Secondary antibodies were conjugated to ALEXAFLUOR 488™ (green fluorescence) and ALEXAFLUOR 568™ (red fluorescence).

[3] = in vivo; cited from earlier work
Nox2 = experiment: IL-6 i.p. on two consecutive days in mice: brain and synaptosomal Nox; details: IL-6 5 μg/kg i.p. on two consecutive days
[4] = tested on: primary neuronal cultures; experiment: DHE oxidation (superoxide and/or hydrogen peroxide production) in primary neuronal cultures exposed to ketamine; assay type: cell-based, mouse
[5] = tested on: PV-interneurons in mouse prefrontal cortex; experiment: two-day ketamine treatment of mice: oxidized DHE, parvalbumin and GAD67 in prefrontal cortex; assay type: in vivo; details: apocynin 5 mg/kg/day 1 week in drinking water; C3 1.0 mg/kg/day one month by mini-pumps
Protocol: Animals and treatments. […] Male C57BL6 mice were obtained from Jackson Labs, Bar Harbor, Me., at 8-12 weeks and housed in our facility until 15 weeks when they were used for experiments. Ketamine (30 mg/kg) was applied intraperitoneally (IP) on two consecutive days at around 4 pm. DHE was applied 30 min after the last ketamine injection as described (19, 20). Briefly, two serial i.p. injections of freshly prepared dihydroethidium (27 mg/kg) are given at 30 minute intervals. Eighteen hours later, mice are anesthetized with inhaled halothane, and perfused intracardially with cold saline followed by 4% paraformaldehyde in PBS. The Nox inhibitor, apocynin (5 mg/kg/day) was given in the drinking water for a total of seven days, with an assumed intake of […] H2O/mouse/day, and ketamine was applied on the last two days. […] All animal studies were approved by the Animal Care Program at the University of California, San Diego, and are in accordance the PHS Guide for the Care and Use of Laboratory Animals, USDA Regulations, and the AVMA Panel on Euthanasia.
Immunohistochemistry: Brains were frontally sliced in a vibratome into 50 μm coronal sections encompassing the prefrontal cortex region (from Bregma 2.0 to 1.3). Sequential slices were processed for floating-section double immunohistochemistry for the detection of parvalbumin and GAD67. Antigen retrieval was performed by incubation of the slices in 1% sodium borohydride for 15 min as described (see reference 34, below), followed by washing in PBS and incubation in 10% normal goat serum in PBS for 16 h at 4° C. Primary antibodies (Calbindin: 1:5000: Calretinin: 1:2000; Parvalbumin: 1:3000, all rabbit polyclonals from Swant, Bellinzona, Switzerland. GAD67: 1:1000, from Chemicon-Millipore, Temecula, Calif.) were diluted in 2% normal goat serum in PBS and applied to the slices for 18 h at 4° C., after which slices were washed in PBS and incubated in a 1:1000 dilution of ALEXAFLUOR™ (Molecular Probes, Invitrogen, Carlsbad, Calif.) conjugated goat anti-rabbit (568) or goat anti-mouse (488) antibodies for 1 hr at room temperature (rt). Slices were washed in PBS and mounted sequentially in glass slides using […]™ (Vector Laboratories, Burlingame, Calif.), covered with a coverslip and allowed to dry for at least 24 h before confocal imaging.
Six slices were analyzed per animal.
Analysis of superoxide and/or hydrogen peroxide production by confocal imaging of in vivo dihydroethidium (DHE) oxidation. Mice will be injected intraperitoneally (i.p.) with dihydroethidium.

[6] = tested on: pyramidal layer of CA1 in the aged hippocampus; experiment: in vivo superoxide production in CA1 of the aged hippocampus (DHE confocal imaging); design: species or system mouse; details: old mice; C3 by oral administration; apocynin
Protocol: Analysis of superoxide and/or hydrogen peroxide production by confocal imaging of in vivo dihydroethidium (DHE) oxidation. Mice will be injected intraperitoneally (i.p.) with dihydroethidium. Briefly, two serial i.p. injections of freshly prepared dihydroethidium (27 mg/kg) are given at 30 minute intervals. Eighteen hours later, mice are anesthetized with inhaled halothane, and are perfused intracardially with cold saline followed by 4% paraformaldehyde in PBS. Brains are removed and post-fixed in 2% paraformaldehyde for >24 h. Following fixation, brains are cut into 50 μm coronal sections and co-labeled with the appropriate primary and secondary antibodies for fluorescence visualization. […] First, an image is taken in the fluorescence channel of the ICC-fluorophor and then the channel is switched to image fluorescence from DHE oxidation. […] Using the image pairs for each field and MetaMorph software, an analyst blind to the group circles the outline of each ICC-labeled cell and then switches to the DHE oxidation image. The average fluorescence intensity for each cell of interest is logged, and values averaged to determine the mean fluorescence/cell.

PV-interneurons [7] = experiment: PV-interneuron counts in old mice after long-term SOD-mimetic treatment; assay type: in vivo, mouse; details: treatment of animals from middle age (OM+C3)
Protocol: Aging was accompanied by a statistically significant decrease in PV-interneuron number in all regions analyzed, as shown in FIG. 41B. […] Statistical significance was determined by ANOVA followed by Tukey's test.

PV-interneurons [8] = experiment: parvalbumin and GAD67 immunoreactivity in PV-interneurons in primary neuronal cultures; details: co-exposure with ketamine 24 h; muscimol 10 μM, C3, apocynin 0.5 mM

Substance	immunoreactivity of GAD67 and parvalbumin in PV-interneurons ([1]; IL-6 10 ng/ml, 24 h)	levels of DHE oxidation ([1]; IL-6 10 ng/ml, 24 h)	effect on parvalbumin and GAD67 immunoreactivity with sub-threshold ketamine ([1]; IL-6 10 ng/ml, ketamine, 24 h)	expression of Nox2 ([1]; IL-6, 24 hours)	superoxide production (EPR, DEPMPO) (NADPH oxidase)	plasma IL-6 16 hr after the last injection ([2]; 3 μg/kg IL-6 i.p. on two consecutive days)	tolerability of higher doses ([2]; IL-6 12 μg/kg)	phosphorylation of Jak2 (Jak2)	half-life in plasma [3]	Nox activity in synaptosomal preparations (Nox2)	effect on ketamine-mediated increase in ROS / free radical production (DHE fluorescence) [4]	effect on ketamine-mediated increase in oxidized DHE [4]	effect on ketamine-induced increase in oxidized DHE in vivo [5]	effect on ketamine-mediated loss of parvalbumin immunoreactivity in PV-interneurons in vivo [5]	effect on elevated levels of superoxide in the pyramidal layer of CA1 in the aged hippocampus [6]	effect on age-related reduction of PV-interneuron numbers (PV-interneurons [7])	effect on ketamine-mediated loss of parvalbumin and GAD67 immunoreactivity in PV-interneurons (PV-interneurons [8])
IL-6: pro-inflammatory cytokine interleukin-6	decreased	increased	increased the effects of ketamine	pronounced increase	small but significant increase	increased plasma IL-6 in young, but not old, mice	induced the sickness response and generalized inflammatory reaction	increased	4 h	significant induction							
tris malonic acid C60 [C3]											prevented	prevented	prevented	completely prevented	prevented	prevented the reduction of PV-interneuron numbers in CA1 and CA3, but not in DG	prevented; also recorded: attenuated

Source: US9944583B2, “Methods for ameliorating and preventing central nervous system inflammation” (THE REGENTS OF THE UNIVERSITY OF CALIFORNIA, priority 2007, dated 2018)
